Assay results as given in patent US9828339B2, “Biphenyl derivatives and methods for preparing same” (DONG-A ST CO., LTD, priority 2013, dated 2017).

Legend:
[1] = biological target: T1, human muscarinic M3 receptor (Homo sapiens (Human), UniProt P20309); assay: Antagonism assay on human muscarinic M3 receptor (carbachol-induced intracellular calcium, FLIPR Calcium 5, transfected Cos-7 cells); format: cell-based; settings: functional inhibitory constant; carbachol-induced intracellular calcium in Cos-7 cells transfected with human M3 receptor
T1 sequence (P20309 whole entry): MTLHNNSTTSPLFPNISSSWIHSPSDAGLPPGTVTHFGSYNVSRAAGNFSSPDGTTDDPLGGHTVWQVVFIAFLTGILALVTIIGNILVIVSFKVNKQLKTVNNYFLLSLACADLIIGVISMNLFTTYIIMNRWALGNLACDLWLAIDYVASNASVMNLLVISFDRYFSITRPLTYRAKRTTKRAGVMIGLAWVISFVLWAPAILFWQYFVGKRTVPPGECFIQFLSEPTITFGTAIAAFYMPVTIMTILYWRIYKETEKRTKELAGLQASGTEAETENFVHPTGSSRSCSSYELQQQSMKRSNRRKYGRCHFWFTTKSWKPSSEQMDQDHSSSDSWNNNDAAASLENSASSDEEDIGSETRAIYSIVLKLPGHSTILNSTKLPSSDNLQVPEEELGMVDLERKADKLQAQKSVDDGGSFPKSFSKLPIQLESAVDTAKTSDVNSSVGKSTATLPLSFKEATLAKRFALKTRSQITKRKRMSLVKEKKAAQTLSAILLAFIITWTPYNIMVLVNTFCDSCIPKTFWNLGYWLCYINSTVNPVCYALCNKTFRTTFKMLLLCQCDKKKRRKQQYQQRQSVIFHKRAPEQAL
Outline: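 Ki values converted by Cheng-Prusoff from IC50 against carbachol-evoked calcium rise, measured with FLIPR Calcium 5 in human M3-transfected Cos-7 cells. Compounds added 3 min before carbachol; signal scaled 0% before, 100% after agonist.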

[2] = tested on: rhythmic bladder contractions; assay: Rhythmic bladder contractions in rats (in vivo); parameters: species or system rat; settings: 0.3 mpk, intravenous, female Sprague-Dawley rats; amplitude reduction of bladder contractions
Text: [Experimental Example 3] Experiment on Rhythmic Bladder Contractions in Rats (In Vivo)
Female Sprague-Dawley rat was halothane-anesthetized, and a polyethylene catheter was inserted through urethra lay down straight and fixed. Urine in bladder was excreted through the catheter by gently massaging abdomen of the rat, and then removed. A three-way stopcock was connected to the catheter and a pressure transducer was connected to one side of the three-way stopcock to measure pressure, and a syringe was installed at the other side to inject 37° C. of saline solution. The saline solution was slowly injected until regular bladder contractions occurred repeatedly. When regular bladder contractions occurred stably, test compounds were administered intravenously through the tail vein. Inhibitory effect of the test compounds was evaluated by measuring degree of amplitude reduction of bladder contractions.

Sprague-Dawley (SD) rats = assay: Acute toxicity test for oral administration on rats; format: in vivo, rat; settings: observed for 4 days
Description: [Experimental Example 4] Acute Toxicity Test for Oral Administration on Rats
In order to confirm acute toxicity of the compounds of the present invention, following experiment was conducted. A low-dose group, a medi-dose group and a high-dose group, wherein the compounds of Examples were administered 100 mg/kg, 300 mg/kg and 1000 mg/kg respectively, were prepared. Methyl cellulose solution (0.5%) was prepared and orally administered to 3 rats of each group (i.e. both sexes of 6-week old Sprague-Dawley (SD) rats; male rats in 142-143 g; female rats in 126.3-127.3 g) in a volume of 10 mL/kg. Mortality, clinical signs and weight and the like were measured for 4 days, and discovered approximate lethal dose (ALD) therefrom were explained in Table 30 below.

[3] = biological target: T1, human muscarinic M3 receptor; assay: Binding assay on human muscarinic M3 receptor ([3H]-methyl scopolamine displacement); settings: membranes overexpressing human M3 receptor, Ki from IC50 by Cheng-Prusoff, read-out: Binding Affinity to M3 Receptor, Ki
Outline: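 Displacement of [3H]-methyl scopolamine from membranes overexpressing human M3, in Tris-HCl, 25 °C, 120 min; filter-bound radioactivity counted. Nonspecific binding with 5 μM atropine; Ki from IC50 via Cheng-Prusoff.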

| Compound | Ki [1] | Inhibition of Rhythmic bladder contraction in rats [2] | Approximate Lethal Dose (ALD) (Sprague-Dawley (SD) rats) | Ki [3] |
| --- | --- | --- | --- | --- |
| Cc1cccc(-c2ccccc2NC(=O)OCCC2CCCN2C)c1 (stereo not shown) [Example 15, 2-(1-methylpyrrolidin-2-yl)ethyl(3′-methyl-[1,1′-biphenyl]-2-yl)carbamate] | 4.1 nM | 25.6 ± 2.2% | >1000 mg/kg | 2.27 nM |
| CN1CCCC1CCOC(=O)Nc1ccc(F)cc1-c1ccc(F)c(Cl)c1 (stereo not shown) [Example 53, 2-(1-methylpyrrolidin-2-yl)ethyl(3′-chloro-4′,5-difluoro-[1,1′-biphenyl]-2-yl)carbamate] | 0.57 nM | 28.0 ± 5.0% | >1000 mg/kg | 1.34 nM |
| CN1CC[C@@H](COC(=O)Nc2ccccc2-c2ccccc2)C1 [Example 89, (R)-(1-methylpyrrolidin-3-yl)methyl [1,1′-biphenyl]-2-ylcarbamate] | 0.16 nM | 33.9 ± 3.5% | >1000 mg/kg | 2.43 nM |
| CN1CC[C@H](COC(=O)Nc2ccccc2-c2ccccc2)C1 [Example 90, (S)-(1-methylpyrrolidin-3-yl)methyl [1,1′-biphenyl]-2-ylcarbamate] | 0.17 nM | 27.4 ± 1.9% | >1000 mg/kg | 1.97 nM |
| CN1CC[C@@H](COC(=O)Nc2ccccc2-c2cc(F)cc(F)c2)C1 [Example 91, (R)-(1-methylpyrrolidin-3-yl)methyl (3′,5′-difluoro-[1,1′-biphenyl]-2-yl)carbamate] | 1.32 nM | 25.2 ± 2.5% | >1000 mg/kg | 4.5 nM |
| Cc1cccc(-c2ccccc2NC(=O)OC[C@@H]2CCN(C)C2)c1 [Example 100, (R)-(1-methylpyrrolidin-3-yl)methyl(3′-methyl-[1,1′-biphenyl]-2-yl)carbamate] | 0.64 nM | 26.0 ± 6.0% | >1000 mg/kg | 2.43 nM |
| CN1CC[C@@H](COC(=O)Nc2ccccc2-c2ccc(F)c(Cl)c2)C1 [Example 136, (R)-(1-methylpyrrolidin-3-yl)-methyl (3′-chloro-4′-fluoro-[1,1′-biphenyl]-2-yl)carbamate] | 0.25 nM | 33.2 ± 4.0% | >1000 mg/kg | 1.59 nM |
| CN1CC[C@@H](COC(=O)Nc2ccc(F)cc2-c2ccc(F)c(Cl)c2)C1 [Example 143, (R)-(1-methylpyrrolidin-3-yl)methyl(3′-chloro-4′,5-difluoro-[1,1′-biphenyl]-2-yl)carbamate] | 0.68 nM | 24.3 ± 5.5% | >1000 mg/kg | 1.12 nM |
| CCN1CC[C@@H](COC(=O)Nc2ccccc2-c2ccc(F)c(Cl)c2)C1 [Example 150, (R)-(1-ethylpyrrolidin-3-yl)methyl (3′-chloro-4′-fluoro-[1,1′-biphenyl]-2-yl)carbamate] | 1.34 nM | 25.1 ± 2.5% | >1000 mg/kg | 5.6 nM |
| CN1CC[C@@H](COC(=O)Nc2ccc(F)cc2-c2cccc(F)c2)C1 [Example 194, (R)-(1-methylpyrrolidin-3-yl)methyl(3′,5-difluoro-[1,1′-biphenyl]-2-yl)carbamate] | 0.58 nM | 24.6 ± 2.6% |  | 6.3 nM |
| Cc1cccc(-c2ccccc2NC(=O)OC[C@@H]2CCCN2C)c1 [Example 199, (S)-(1-methylpyrrolidin-2-yl)methyl(3′-methyl-[1,1′-biphenyl]-2-yl)carbamate] | 0.26 nM | 27.8 ± 4.5% | >1000 mg/kg | 0.8 nM |
| Cc1ccc(NC(=O)OC[C@@H]2CCCN2C)c(-c2cccc(F)c2)c1 [Example 207, (S)-(1-methylpyrrolidin-2-yl)methyl(3′-fluoro-5-methyl-[1,1′-biphenyl]-2-yl)carbamate] | 3.52 nM | 18.2 ± 3.7% |  | 13.4 nM |
